Experimental data: US5348946A, “Heteroanthracycline antitumor analogs” (Biochem Immunosystems, Inc., priority 1991, dated 1994)

What was measured:
HI-60TB = test: in vitro cytotoxicity evaluation, Leukemia; type: cell-based; conditions: Homo sapiens, 48 h, two days, sulforhodamine B
UO-31 = test: in vitro cytotoxicity evaluation, Renal Cancer; type: cell-based; conditions: Homo sapiens, 48 h, UO-31, two days, sulforhodamine B
Experimental: (§1) These assays were carried out at the Developmental Therapeutics Program, Division of Cancer Treatment, National Cancer Institute (Bethesda, Md., USA). The method consists of incubating varying concentrations of the drug with an inoculum of cells for two days.
(§2) It should be noted that the first two parameters (GI50 and TGI) relate to antiproliferation effects while the third one (LC50) indicates true cytotoxicity.

DLD-1 = test: in vitro cytotoxicity evaluation, Colon Cancer; type: cell-based; conditions: Homo sapiens, 48 h, DLD-1, two days, sulforhodamine B
Experimental: as §1, §2

KM 12 = test: in vitro cytotoxicity evaluation, Colon Cancer; type: cell-based; conditions: Homo sapiens, KM12, 48 h, KM 12, two days, sulforhodamine B
Experimental: as §1, §2

HT 29 = test: in vitro cytotoxicity evaluation, Colon Cancer; type: cell-based; conditions: Homo sapiens, 48 h, HT 29, two days, sulforhodamine B
Experimental: as §1, §2

HCT-116 = test: in vitro cytotoxicity evaluation, Colon Cancer; type: cell-based; conditions: Homo sapiens, 48 h, HCT-116, two days, sulforhodamine B
Experimental: as §1, §2

MK20L2 = test: in vitro cytotoxicity evaluation, Colon Cancer; type: cell-based; conditions: Homo sapiens, 48 h, MK20L2, two days, sulforhodamine B
Experimental: as §1, §2

SW-620 = test: in vitro cytotoxicity evaluation, Colon Cancer; type: cell-based; conditions: Homo sapiens, 48 h, SW-620, two days, sulforhodamine B
Experimental: as §1, §2

HCT-15 = test: in vitro cytotoxicity evaluation, Colon Cancer; type: cell-based; conditions: Homo sapiens, 48 h, HCT-15, two days, sulforhodamine B
Experimental: as §1, §2

Colo 205 = test: in vitro cytotoxicity evaluation, Colon Cancer; type: cell-based; conditions: Homo sapiens, 48 h, Colo 205, two days, sulforhodamine B
Experimental: as §1, §2

K-562 = test: in vitro cytotoxicity evaluation, Leukemia; type: cell-based; conditions: Homo sapiens, K562, 48 h, K-562, two days, sulforhodamine B
Experimental: as §1, §2

MOLT-4 = test: in vitro cytotoxicity evaluation, Leukemia; type: cell-based; conditions: Homo sapiens, 48 h, MOLT-4, two days, sulforhodamine B
Experimental: as §1, §2

CCRF-CEM = test: in vitro cytotoxicity evaluation, Leukemia; type: cell-based; conditions: Homo sapiens, 48 h, two days, sulforhodamine B
Experimental: as §1, §2

RPMI-8226 = test: in vitro cytotoxicity evaluation, Leukemia; type: cell-based; conditions: Homo sapiens, 48 h, RPMI-8226, two days, sulforhodamine B
Experimental: as §1, §2

59 tumor cell lines = test: in vitro cytotoxicity evaluation, whole panel; type: cell-based, human
Experimental: as §1, §2

[1] = read-out: LOG10 G150 (GI50) (converted)
[2] = read-out: Log10 LC50 (converted)
[3] = read-out: Log10 TGI (converted)

Compound `COc1c2c(c(OC)c3c(=O)c4ccccc4sc13)CS(=O)(=O)[C@@H]2O[C@H]1C[C@H](N)[C@H](O)[C@H](C)O1` [BCH-255, (1S ) 1-daunosamine-4-11-dimethoxy-5-oxo-5-H-1,3-dihydrothioxantheno [2,3-c] thiophene-2,2-dioxide] has a GI50 (HI-60TB; [1]) of 15.8 µM, a CC50 (HI-60TB; [2]) of 69.2 µM and an IC (total growth inhibition (TGI)) (HI-60TB; [3]) of 33.1 µM. It also gave a GI50 (UO-31; [1]) of 19.5 µM, a CC50 (UO-31; [2]) of 91.2 µM and an IC (total growth inhibition (TGI)) (UO-31; [3]) of 42.7 µM. For the same compound, the GI50 (DLD-1; [1]) was 24.5 µM, the LC50 (DLD-1; [2]) was > 100 µM and the IC (total growth inhibition (TGI)) (DLD-1; [3]) was 67.6 µM. The GI50 (KM 12; [1]) was 18.2 µM, the CC50 (KM 12; [2]) was 87.1 µM and the IC (total growth inhibition (TGI)) (KM 12; [3]) was 39.8 µM. It also gave a GI50 (HT 29; [1]) of 17.8 µM, a CC50 (HT 29; [2]) of 61.7 µM and an IC (total growth inhibition (TGI)) (HT 29; [3]) of 33.1 µM. For the same compound, the GI50 (HCT-116; [1]) was 20.4 µM, the CC50 (HCT-116; [2]) was 75.9 µM and the IC (total growth inhibition (TGI)) (HCT-116; [3]) was 39.8 µM. For the same compound, the GI50 (MK20L2; [1]) was 17 µM, the CC50 (MK20L2; [2]) was 57.5 µM and the IC (total growth inhibition (TGI)) (MK20L2; [3]) was 30.9 µM. The GI50 (SW-620; [1]) was 20.4 µM, the CC50 (SW-620; [2]) was 67.6 µM and the IC (total growth inhibition (TGI)) (SW-620; [3]) was 37.2 µM. It also gave a GI50 (HCT-15; [1]) of 19.1 µM, a CC50 (HCT-15; [2]) of 95.5 µM and an IC (total growth inhibition (TGI)) (HCT-15; [3]) of 42.7 µM. It also gave a GI50 (Colo 205; [1]) of 17.8 µM, a CC50 (Colo 205; [2]) of 77.6 µM and an IC (total growth inhibition (TGI)) (Colo 205; [3]) of 37.2 µM. For the same compound, the GI50 (K-562; [1]) was 16.2 µM, the CC50 (K-562; [2]) was 83.2 µM and the IC (total growth inhibition (TGI)) (K-562; [3]) was 36.3 µM. It also gave a GI50 (MOLT-4; [1]) of 19.1 µM, a CC50 (MOLT-4; [2]) of 87.1 µM and an IC (total growth inhibition (TGI)) (MOLT-4; [3]) of 40.7 µM. For the same compound, the GI50 (CCRF-CEM; [1]) was 17.8 µM, the CC50 (CCRF-CEM; [2]) was 97.7 µM and the IC (total growth inhibition (TGI)) (CCRF-CEM; [3]) was 41.7 µM. The GI50 (RPMI-8226; [1]) was 16.2 µM, the CC50 (RPMI-8226; [2]) was > 100 µM and the IC (total growth inhibition (TGI)) (RPMI-8226; [3]) was 40.7 µM. The “DELTA of Log10 TGI” value (59 tumor cell lines; DELTA over the panel) was 0.13, the CC50 (59 tumor cell lines; Homo sapiens, 48 h, MG MID over the panel, read-out: MG MID of Log10 LC50 (converted)) was 75.9 µM and the IC (TGI) (59 tumor cell lines; Homo sapiens, 48 h, MG MID over the panel, read-out: MG MID of Log10 TGI (converted)) was 40.7 µM. For the same compound, the GI50 (59 tumor cell lines; Homo sapiens, MG MID over the panel, read-out: MG MID of LOG10 G150 (GI50) (converted)) was 20 µM, the “RANGE of Log10 TGI” value (59 tumor cell lines; RANGE over the panel) was 0.52 and the cytotoxicity (59 tumor cell lines; solid tumors and leukemia cell lines) was “all the cell lines of solid tumors and leukemia showed cytotoxcity to the drug”. The “spectrum of antitumor activity” value (59 tumor cell lines; tumor cell line panel) was “wide spectrum of antitumor activity”.
